Laboratory results published in patent US9115143B2, “Substituted indole derivatives as gamma secretase modulators” (Janssen Pharmaceuticals, Inc., priority 2011, dated 2015).

Tests used:
Aβ42 = test: In vivo efficacy B-1b: brain soluble Aβ42, MSD electrochemiluminescence multiplex; conditions: mouse brain soluble fraction, dose 30 mg/kg oral dosing, 4 h after dose; untreated control set at 100; read-out: Aβ42 (% vs Ctrl)_Mean
From the text: (§1) To determine whether acute administration of an Aβ42 lowering agent would reduce Aβ42 levels in vivo, non-transgenic rodents, e.g. mice or rats were used. Animals treated with the Aβ42 lowering agent were examined and compared to those untreated or treated with vehicle and brain levels of soluble Aβ42, Aβ40, Aβ38, and Aβ37 were quantitated by Meso Scale Discovery's (MSD) electrochemiluminescence detection technology. Treatment periods varied from hours (h) to days and were adjusted based on the results of the Aβ42 lowering once a time course of onset of effect could be established.
(§2) A typical protocol for measuring Aβ42 lowering in vivo is shown but it is only one of many variations that could be used to optimize the levels of detectable Aβ. For example, Aβ42 lowering compounds were formulated in 20% of Captisol® (a sulfobutyl ether of β-cyclodextrin) in water or 20% hydroxypropyl β cyclodextrin. The Aβ42 lowering agents were administered as a single oral dose or by any acceptable route of administration to overnight fasted animals. After 4 h, the animals were sacrificed and Aβ42 levels were analysed.
(§3) Blood was collected by decapitation and exsanguinations in EDTA-treated collection tubes. Blood was centrifuged at 1900 g for 10 minutes (min) at 4° C. and the plasma recovered and flash frozen for later analysis. The brain was removed from the cranium and hindbrain. The cerebellum was removed and the left and right hemisphere were separated. The left hemisphere was stored at −18° C. for quantitative analysis of test compound levels. The right hemisphere was rinsed with phosphate-buffered saline (PBS) buffer and immediately frozen on dry ice and stored at −80° C. until homogenization for biochemical assays.
(§4) Mouse brains from non-transgenic animals were resuspended in 8 volumes of 0.4% DEA (diethylamine)/50 mM NaCl containing protease inhibitors (Roche-11873580001 or 04693159001) per gram of tissue, e.g. for 0.158 g brain, add 1.264 ml of 0.4% DEA. All samples were homogenized in the FastPrep-24 system (MP Biomedicals) using lysing matrix D (MPBio #6913-100) at 6 m/s for 20 seconds. Homogenates were centrifuged at 20800×g for 5 min and supernatants collected. Supernatants were centrifuged at 221.300×g for 50 min. The resulting high speed supernatants were then transferred to fresh eppendorf tubes. Nine parts of supernatant were neutralized with 1 part 0.5 M Tris-HCl pH 6.8 and used to quantify Aβ.
(§5) To quantify the amount of Aβ42, Aβ40, Aβ38, and Aβ37 in the soluble fraction of the brain homogenates, simultaneous specific detection of Aβ42, Aβ40, Aβ38, and Aβ37 was performed using MSD's electro-chemiluminescence multiplex detection technology. In this assay purified monoclonal antibodies specific for Abeta37 (JRD/Aβ37/3), Abeta38 (J&JPRD/Aβ38/5), Abeta40 (JRF/cAβ40/28), and Abeta42 (JRF/cAβ42/26) were coated on MSD 4-plex plates. Briefly, the standards (a dilution of synthetic Aβ42, Aβ40, Aβ38, and Aβ37) were prepared in 1.5 ml Eppendorf tube in Ultraculture, with final concentrations ranging from 10000 to 0.3 pg/m. The samples and standards were co-incubated with Sulfo-tag labelled JRF/rAβ/2 antibody to the N-terminus of Aβ as detector antibody. 50 μl of conjugate/sample or conjugate/standards mixtures were then added to the antibody-coated plate. The plate was allowed to incubate overnight at 4° C. in order to allow formation of the antibody-amyloid complex. Following this incubation and subsequent wash steps the assay was finished by adding read buffer according to the manufacturer's instructions (Meso Scale Discovery, Gaitherburg, Md.).
(§6) The SULFO-TAG emits light upon electrochemical stimulation initiated at the electrode. MSD Sector instrument SI6000 was used for signal read-out.
In this model a Aβ42 lowering compared to untreated animals would be advantageous, in particular a Aβ42 lowering with at least 10%, more in particular a Aβ42 lowering with at least 20%. […]

Aβ40 = test: In vivo efficacy B-1b/B-2b: brain soluble Aβ40, MSD electrochemiluminescence multiplex; conditions: mouse brain soluble fraction, dose 30 mg/kg oral dosing, 4 h after dose; untreated control set at 100; read-out: Aβ40 (% vs Ctrl)_Mean
From the text: as §1, §2, §3, §4, §5, §6
The results are shown in Table 5 (dose 30 mg/kg oral dosing) (value for untreated animals as control (Ctrl) was set at 100): […]

Aβ38 = test: In vivo efficacy B-2b: brain soluble Aβ38, MSD electrochemiluminescence multiplex; conditions: mouse brain soluble fraction, dose 30 mg/kg oral dosing, 4 h after dose; untreated control set at 100; read-out: Aβ38 (% vs Ctrl)_Mean
From the text: as §1, with “Aβ38 increasing agents” for “Aβ42 lowering agent”, “increase Aβ38” for “reduce Aβ42”, “MSD” for “Meso Scale Discovery's (MSD)”, “Aβ38 increase” for “Aβ42 lowering”
as §2, with “measuring Aβ38 increase” for “measuring Aβ42 lowering”, “example, Aβ38 increasing agents” for “example, Aβ42 lowering compounds”, “The Aβ38 increasing” for “The Aβ42 lowering”, “and Aβ38” for “and Aβ42”
as §3, §4, §5, §6
In this model a Aβ38 increase compared to untreated animals would be advantageous, in particular a Aβ38 increase with at least 10%, more in particular a Aβ38 increase with at least 20%. […]

Row | SMILES | melting point | response vs control in vivo at 30 mg/kg (Aβ42) | response vs control in vivo at 30 mg/kg (Aβ40) | response vs control in vivo at 30 mg/kg (Aβ38)
1 | COc1c(C#N)ccc2[nH]c(-c3nc4n(n3)CCOC4c3c(F)cccc3Cl)cc12 (single isomer, unassigned) [Compound 117, 2-[8-(2-chloro-6-fluorophenyl)-5,6-dihydro-8H-[1,2,4]triazolo[5,1-c][1,4]oxazin-2-yl]-4-methoxy-1H-indole-5-carbonitrile] |  | 79% | 112% | 147%
2 | N#Cc1ccc2[nH]c(-c3nc4n(n3)CCCC4c3cccc(OC(F)(F)F)c3)cc2c1 (stereo not drawn) [Compound 20, 2-[5,6,7,8-tetrahydro-8-[3-(trifluoromethoxy)phenyl][1,2,4]triazolo[1,5-a]pyridin-2-yl]-1H-indole-5-carbonitrile] | 225.1 °C |  |  | 
3 | COc1c(C#N)ccc2[nH]c(-c3cn4c(n3)C(c3ccc(F)cc3C)OCC4)cc12 (stereo not drawn) [Compound 46, 2-[8-(4-fluoro-2-methylphenyl)-5,6-dihydro-8H-imidazo[2,1-c][1,4]oxazin-2-yl]-4-methoxy-1H-indole-5-carbonitrile] | 236.2 °C |  |  | 
4 | COc1c(C#N)ccc2[nH]c(-c3cn4c(n3)C(c3ccc(F)cc3C)OCC4)cc12 (stereo not drawn) [Compound 47, 2-[8-(4-fluoro-2-methylphenyl)-5,6-dihydro-8H-imidazo[2,1-c][1,4]oxazin-2-yl]-4-methoxy-1H-indole-5-carbonitrile] | 242.6 °C | 55% | 56% | 222%
5 | COc1c(C#N)ccc2[nH]c(-c3nc4n(n3)CCOC4c3ccccc3C(F)(F)F)cc12 (stereo not drawn) [Compound 55, 2-[5,6-dihydro-8-[2-(trifluoromethyl)phenyl]-8H-[1,2,4]triazolo[5,1-c][1,4]oxazin-2-yl]-4-methoxy-1H-indole-5-carbonitrile] |  | 68% | 94% | 148%
6 | COc1c(C#N)ccc2[nH]c(-c3nc4n(n3)CCOC4c3ccc(F)cc3C)cc12 (stereo not drawn) [Compound 114, 2-[8-(4-fluoro-2-methylphenyl)-5,6-dihydro-8H-[1,2,4]triazolo[5,1-c][1,4]oxazin-2-yl]-4-methoxy-1H-indole-5-carbonitrile] | 257.5 °C |  |  | 
7 | Cc1cn(-c2ccc3[nH]c(-c4nc5n(n4)CCCC5c4ccc(F)cc4C)nc3c2)cn1 (stereo not drawn) [Compound 176, 8-(4-fluoro-2-methylphenyl)-5,6,7,8-tetrahydro-2-[5-(4-methyl-1H-imidazol-1-yl)-1H-benzimidazol-2-yl]-[1,2,4]triazolo[1,5-a]pyridine] |  | 103% | 111% | 126%

Continued, in another order:

Row | melting point | SMILES | response vs control in vivo at 30 mg/kg (Aβ42) | response vs control in vivo at 30 mg/kg (Aβ40) | response vs control in vivo at 30 mg/kg (Aβ38)
8 | 189.4 °C | Cc1cn(-c2ccc3[nH]c(-c4nc5n(n4)CCCC5c4ccccc4C)cc3n2)cn1.Cl (stereo not drawn) [Compound 5, 5,6,7,8-tetrahydro-2-[5-(4-methyl-1H-imidazol-1-yl)-1H-pyrrolo[3,2-b]pyridin-2-yl]-8-(2-methylphenyl)-[1,2,4]triazolo[1,5-a]pyridine] |  |  | 
9 | 266.5 °C | Cc1cc(-c2ccc3[nH]c(-c4nc5n(n4)CCCC5c4ccccc4C)cc3n2)ccn1 (stereo not drawn) [Compound 6, 5,6,7,8-tetrahydro-8-(2-methylphenyl)-2-[5-(2-methyl-4-pyridinyl)-1H-pyrrolo[3,2-b]pyridin-2-yl]-[1,2,4]triazolo[1,5-a]pyridine] |  |  | 
10 | 244.9 °C | Cc1cc(F)ccc1C1CCCn2nc(-c3cc4cc(C#N)ccc4[nH]3)nc21 (stereo not drawn) [Compound 9, 2-[8-(4-fluoro-2-methylphenyl)-5,6,7,8-tetrahydro[1,2,4]triazolo[1,5-a]pyridin-2-yl]-1H-indole-5-carbonitrile] |  |  | 
11 | 142.1 °C | Cc1ccccc1C1CCCn2nc(-c3cc4cc(C#N)ccc4[nH]3)nc21 (stereo not drawn) [Compound 12, 2-[5,6,7,8-tetrahydro-8-(2-methylphenyl)[1,2,4]triazolo[1,5-a]pyridin-2-yl]-1H-indole-5-carbonitrile] |  |  | 
12 | 229 °C | N#Cc1ccc2[nH]c(-c3nc4n(n3)CCCC4c3ccccc3C(F)(F)F)cc2c1 (stereo not drawn) [Compound 18, 2-[5,6,7,8-tetrahydro-8-[2-(trifluoromethyl)phenyl][1,2,4]triazolo[1,5-a]pyridin-2-yl]-1H-indole-5-carbonitrile] |  |  | 
